This note sets out measurements from patent US20090196854A1, “METHODS AND COMPOSITIONS FOR USE OF CRL 5803 CELLS FOR EXPRESSION OF BIOTHERAPEUTICS AND ENCAPSULATED CELL-BASED DELIVERY” (priority 2008, published 2009).

The test system of data set [1] is HT1080 cells (CD clone). Briefly: 5FC sensitivity of cells expressing WT CD gene. Format: cell-based, human. The source says:
HT1080 cells and CD Expression, The HT1080 cell line was obtained from the ATCC and transfected with the WT CD gene of the present invention. A clone was isolated that had high expression of immunoreactive CD. […] This represents toxicity at about 100-fold lower concentrations of 5FC than achieved by others with HT1080 cells (Dachs, et al., Nature Medicine 3:515-20, 1997).

Data set [2] concerns human kidney cells 293 cells. The experiment in a line: 5FC sensitivity of cells expressing WT-CD transgene. As to conditions: HEK293, 293 cells expressing WT-CD transgene. Format: cell-based.
Data set [3] concerns human colon tumor cells. The description is as above. Format: cell-based.
The test system of data set [4] is CRL5816 cells. Described as above. It is filed as cell-based. As to conditions: Homo sapiens.
The subject of data set [5] is ARPE-19 cells. The experiment in a line: 5FC sensitivity of cells transfected with CD gene. Format: cell-based, human. As to conditions: ARPE-19 transfected with CD gene. The source says: ARPE-19 and CD Expression. […] The purpose of the screen was to eliminate 5FU-resistant cells with the expectation that it would be difficult to use CD as a kill system in such cells. We conclude that lack of cytotoxicity with CD transgene and 5FC treatment in these cells is, at least in part, due to the insensitivity of these cells to 5FU cytotoxicity. The 5-FC and CD cell suicide safety system may not readily be an effective safety system with ARPE-19 cells.

The subject of data set [6] is K3.31. Briefly: 5FC and 5FU dose-response in BDNF-expressing CRL 5803 line and CD transfectants. As to conditions: Homo sapiens; K3.31 transfected with CD gene; read-out: 5FC IC50. Format: cell-based. How it is done: (§1) CRL 5803 cells expressing BDNF and CD: The CRL 5803 cell line was transfected with BDNF and clones expressing BDNF were selected. These selected clones were expanded to provide cells for transfections with cytosine deaminase plasmid (CX014). Four CD gene transfection studies were performed with three different BDNF-expressing cell lines. For each cell line at least 24 resistant clones were picked and screened for sensitivity to 100 μM 5FC. The clones with the lowest survival in 5FC (as percent of control wells) were then expanded for dose-response studies with 5FC and 5FU. Cytotoxicity of 5FC was used as an indication of CD gene expression, and this screen provided 6-9 clones per transfection. The IC50 for 5FU indicated the maximum potential cytotoxicity of the prodrug, 5FC, in cells expressing sufficient levels of CD gene and protein.

The subject of data set [7] is K3.3. The description is as above. Format: cell-based. As to conditions: Homo sapiens; K3.3 transfected with CD gene; read-out: 5FC IC50. As to the method:
as §1

The subject of data set [8] is K3.4. The data set is described as above. It is filed as cell-based. As to conditions: Homo sapiens, read-out: 5FC IC50. How it is done: as §1
In data set [9] the test system is ARPE-19. It is filed as cell-based, human. As to the method:
(§2) The cell lines were plated in 48 well plates at an appropriate dilution of cells for each cell line to provide for rapid entry into log phase of growth. The various concentrations of the selection drugs were added so that the drugs were present at the initiation of log phase growth and viable cells were determined after 7-10 days of culture. The screening used data for functional mass at the end of the study to express viable cells as a percentage of the vehicle, or no-treatment control wells. […] The % viable cell mass data was plotted, and fitted typically with a four-parameter equation. The fitted equation was used to calculate the IC50 dose. The drugs tested were G418 (inactivated by neomycin phophotransferase, NPT), hygromycin (inactivated by hygromycin phosphotansferse, HPT), blasticidin (inactivated by blasticidin deaminase, BSD), and zeocin (bound by bleomycin binding protein, BBP). These antibiotics were obtained from Invitrogen/Gibco (Invitrogen SA, Barcelona).
(§3) The drugs, G418, Zeocin, hygromycin, and blasticidin were obtained and used as described earlier. The most important aspect of these studies was to identify the concentration needed to kill all non-transfected cells.

For data set [10], the system named is CCL205. Format: cell-based, human. How it is done:
as §2, §3

Data set [11] concerns CRL1440. Format: cell-based, human. How it is done:
as §2, §3

The subject of data set [12] is CRL5803. Format: cell-based, human. As to the method:
as §2, §3

In data set [13] the test system is ARPE-19 polyclone. The experiment in a line: Zeocin dose-response of growth in BBP-transfected polyclones. Format: cell-based, human.
Data set [14] has as its system CRL 5803 polyclones.
Description: (§4) In an effort to address this issue we used plasmids we had constructed that used either of three viral promoter/enhancers: CMV, SV40, or RSV. These viral regulatory elements were used to direct the expression of the selectable marker for Zeocin, a bleomycin binding protein (BBP) that inactivates the drug by binding, rather than enzymatic degradation. The resistant colonies produced by these transfections were grown as polyclones for each different promoter.
In data set [15] the test system is CCL205 polyclone. As to conditions: CMV promoter polyclone.
Description: as §4
The growth of CCL205 cells was slow enough that for IC50 calculations the final viable mass was used rather than growth.
For data set [16], the system named is CRL1440 polyclones. Briefly: Zeocin dose-response of growth in BBP-transfected polyclones.
Description: as §4
Polyclones were expanded in 300 μg/ml Zeocin for SV40 and CMV promoter plasmids, and then plated to determine IC50s for growth at varied Zeocin doses.

Where two headings read alike, the source gives them in different places.

The term IC50 denotes the midpoint of a concentration-inhibition curve. As to `Nc1nc(=O)[nH]cc1F` [5FC, 5-fluorocytosine], the IC50 in data set [1] (Homo sapiens, HT-1080, HT1080 clone with high expression of immunoreactive CD, dominantly growth arrest) stood at 110 µM; in [2], 55 µM; in data set [3], 45 µM; in data set [4], 48 µM; in data set [6], 21 ± 2 µM; in [7], 14 ± 2 µM. Besides, the IC50 in [8] (independent second transfection with the CD gene) was found to be 67 ± 8 µM; in data set [8] (one of the transfections with the CD gene) it was 79 ± 9 µM. Moreover, the “fold lower toxic concentration of 5FC than achieved by others with HT1080 cells” value in data set [1] (versus Dachs et al. 1997) is listed as “about 100 fold”. The “sensitivity of CD-transfected clones to 5FC” value in data set [5] was “unable to isolate clones that were sensitive to 5FC”.
Regarding `Cc1c(N)nc([C@H](CC(N)=O)NC[C@H](N)C(N)=O)nc1C(=O)N[C@H](C(=O)N[C@H](C)[C@@H](O)[C@H](C)C(=O)N[C@H](C(=O)NCCC1=N[C@@H](c2nc(C(=O)NCCCCN=C(N)N)cs2)CS1)[C@@H](C)O)[C@@H](O[C@@H]1O[C@@H](CO)[C@@H](O)[C@H](O)[C@@H]1O[C@H]1O[C@H](CO)[C@@H](O)[C@H](OC(N)=O)[C@@H]1O)c1cnc[nH]1` [Zeocin], the “concentration found to kill non-transfected cells” value in [9] is 50 µg/mL; in data set [10], under 20 µg/mL; in data set [11], 100 µg/mL; in [12], 500 µg/mL. Moreover, the “shift in resistance compared to cells with no Zeocin-resistance gene” value in [13] (CMV promoter) is listed as about 8 fold. Moreover, the figures for the “IC50 for growth in Zeocin” value in [13] (CMV promoter-BBP polyclone), in data set [16] (CMV plasmids) and in [16] (SV40 promoter plasmid) were 399 µg/mL, 2395 µg/mL and 959 µg/mL, respectively. Besides, the “growth IC50 in Zeocin” value turned out to be 2700 µg/mL in data set [14] (CRL 5803, CMV promoter-BBP); 2400 µg/mL in data set [14] (CRL 5803, RSV promoter-BBP); 2800 µg/mL in [14] (CRL 5803, SV40 promoter plasmid). For the same compound, in data set [14] (CRL 5803, all promoters), the “increase in the growth IC50” value is recorded as about 5 fold. In data set [14] (CRL 5803 CMV promoter polyclone, dose range extended to 5000 μg/ml), the “doses at which cytotoxicity was evident” value is over 3000 µg/mL. Also, the “IC50 for Zeocin (final viable mass)” value in [15] came to 27 µg/mL.
